{"source": "patent US9290427B2", "about": "“Anti-invasive compounds” (Universiteit Gent, priority 2012, dated 2016)", "key": {"[1]": {"test_system": "BLM melanoma cells", "experiment": "MTT test, BLM", "assay_type": "cell-based", "description": "(§1) An MTT test provides an indication of cell viability, proliferation and activity through determination of the mitochondrial conversion of 3-(4,5-dimethylthiazol-2-yl)-2,5-diphenyltetrazolium bromide (MTT), a yellow salt, into formazan, a salt that precipitates under the form of blue crystals.\n(§2) In concreto, 5,000 cells are seeded in a cup of a 96 well-plate, treated with the desired amount of the test substance, and incubated for a chosen period of time. Next, 40 μL of a filtered (0.2 μm) 5 mg·mL^−1 solution of MTT in PBS is added to the cup. After 2 h of incubation at 37° C. in the dark, all liquid is removed. The obtained formazan salts are dissolved in 200 μL of DMSO, whereupon optical density is measured at 490 nm.\nAs 4-fluoro-3′,4′,5′-trimethoxychalcone had exerted an anti-invasive activity on BLM melanoma cells in the Matrigel invasion assay, we were intrigued to verify how its effect on the viability of BLM cells would compare to that observed for the MCF-7 cell lines."}, "[2]": {"test_system": "MCF-7/6 cells", "experiment": "Sulforhodamine B (SRB) test, MCF-7/6", "assay_type": "cell-based, human", "description": "(§3) The SRB assay is used to evaluate growth effects on cells, and measures the total protein content. In this test, 5,000 cells are seeded in a cup of a 96-well plate. Upon a 24 h-attachment period, cells are treated with a certain amount of the test molecule (dissolved in DMSO). After a pre-chosen incubation time, cells are fixed with 50 μL of 50% trichloroacetic acid (2° C., 1 h). Afterward, the plate is rinsed five times with tap water, and air dried overnight.\n(§4) Next, proteins are stained with 75 μL of a 0.4% solution of SRB in AcOH (30 min). Unbound SRB is subsequently removed by washing with a 1% solution of glacial AcOH, whereupon the plate is air dried. Then, bound SRB is redissolved in 100 μL of a 10 mmol·L^−1 tris(hydroxymethyl)aminomethane (Tris) buffer (pH=10.5), after which optical density is determined at 490 nm with a spectrophotometer.\nBesides, also an SRB assay was performed. This test is based on the ability of the dye sulforhodamine B (SRB) to bind electrostatically on basic amino acid residues of protein in trichloroacetic acid-fixed cells. Results obtained in the SRB assay are linearly proportional to the amount of cellular protein and thus to the cell number."}, "[3]": {"test_system": "FaDu cells", "experiment": "SRB test, FaDu", "assay_type": "cell-based, human", "settings": "1 or 10 μmol·L−1, 24 h", "description": "as §3, §4\n(§5) In order to verify whether the antiproliferative effects of compound 49, witnessed in BLM and MCF-7/6 cells at high concentrations, were cell specific, additional SRB and MTT assays on a further five cell lines (HCT8-E11, TR146, FaDu, 3T3-L1 and CT5.3) were conducted (FIG. 8). The results for MCF-7/6 cells were added to facilitate comparison.\nThe CT5.3 cell line consists of human myofibroblasts which were isolated from a colon tumor (Van Hoorde et al., 1999). […]"}, "[4]": {"test_system": "HCT8-E11 colon carcinoma cells", "experiment": "MTT test, HCT8-E11", "assay_type": "cell-based, human", "description": "as §1, §2, §5\nThe CT5.3 cell line consists of human myofibroblasts which were isolated from a colon tumor (Van Hoorde et al., 1999). 3T3-L1 cells are murine fibroblasts, originating from embryo's of Swiss mice (Todaro and Green, 1963). HCT8-E11, FaDu and TR146 are human epithelial cancer cell lines. […]"}, "[5]": {"test_system": "MCF-7/6 mammary carcinoma cell line", "experiment": "in vivo survival study after intracardial injection of MCF-7/6 cells", "design": "species or system Swiss nu/nu mice", "settings": "for # at risk / # deaths / psurv: 10 nmol i.p. thrice a week; for pcum: cumulative probability of survival", "description": "In order to evaluate the in vivo potency of 4-fluoro-3′,4′,5′-trimethoxychalcone 49 against the MCF-7/6 mammary carcinoma cell line, a broadly used metastasis experiment involving intracardial injection of the cancer cells was conducted. One week after subcutaneous implantation of an estrogen pellet (1 mg) in the dorsal region of the neck, […] Swiss nu/nu mice were injected in the left cardiac ventricle with 1.10^5 MCF-7/6 cells under xylazine and ketamine anesthesia (Smith W., 1993).\nBy virtue of injection into the left cardiac ventricle, cancer cells directly enter systemic arterial circulation, which enhances the chance for colonization (Arguello et al., 1988). […] However, since these metastases are difficultly detectable and quantifiable, survival time was chosen as the sole end point in this study.\nUpon inoculation, mice were divided randomly into two equal groups. One cohort was intraperitoneally injected with 10 nmol of 49 thrice a week (160 μg·kg^−1 for a 20 g animal), while the other group only received the vehicle (100 μL of serum-free DMEM containing 1:1000 DMSO).\nTwenty 6-week old female Swiss nu/nu mice were given a subcutaneous estrogen implant (1 mg) in the dorsal region of the neck. One week later, intracardial injection of 100,000 MCF-7/6 cells in […] of PBS^D^+ was performed. Animals were anesthesized priorly by i.p. injection of xylazine (5 μL, Rompun®) and ketamine (36 μL, Ketalar®). Intracardial injection was performed with a 30 G needle (½″), which was introduced into the thoracic cavity underneath the sternum. Upon protrusion of the wall of the left ventricle, blood is pumped into the syringe. At this moment, careful injection of the cancer cells can be conducted. Next, mice were randomly divided into a vehicle control and a 49-treated cohort.\nFrom the inoculation date on, mice were treated i.p. three times a week with 100 μL of a 100 μmol·L^−1 solution of 49 in serum-free DMEM containing 1:1000 DMSO, or with vehicle alone (see “preparation procedure”). Survival numbers for both cages were recorded on a daily basis.\n“Preparation procedure”: for the 49-treated group, 100 mmol·L^−1 solutions of 49 in DMSO were freshly prepared on each injection day, and diluted 1:1000 with serum-free DMEM so as to obtain injectable solutions of 100 μmol·L^−1 of 49. Control mice were given i.p. injections with 100 μL of the vehicle (1:1000 DMSO in serum-free DMEM)."}, "[6]": {"settings": "elevated concentrations 10-100 μmol·L−1, summary"}}, "data": [{"smiles": "COc1cc(C(=O)/C=C/c2ccc(F)cc2)cc(OC)c1OC", "note": "[Compound 49, (2E)-3-(4-Fluorophenyl)-1-(3,4,5-trimethoxyphenyl)propenone]", "values": [{"measurement": "reduction of BLM cell viability (mitochondrial activity)", "setting": "[1]; 0.1 μmol·L−1, 24 h", "result": 22, "unit": "%"}, {"measurement": "reduction of BLM cell viability (mitochondrial activity)", "setting": "[1]; 1 μmol·L−1, 24 h", "result": 27, "unit": "%"}, {"measurement": "reduction in mitochondrial activity", "setting": "[1]; 10 μmol·L−1, 24 h", "result": 40, "unit": "%"}, {"measurement": "reduction of BLM cell viability (mitochondrial activity)", "setting": "[1]; 100 μmol·L−1, 24 h", "result": 76, "unit": "%"}, {"measurement": "number of cells", "setting": "[2]; 1 μmol·L−1, FIG. 6", "result": "smaller but still significant reduction"}, {"measurement": "change in total protein content", "setting": "[2]; 10 μmol·L−1, 24 h, decreasing trend, not significant", "result": "−10", "unit": "%"}, {"measurement": "total protein content relative to solvent control", "setting": "[2]; 100 and 10 μmol·L−1, FIG. 6 (72 and 144 h), p<0.01", "result": "significant reduction"}, {"measurement": "reduction in total protein content", "setting": "[2]; [6]", "result": "~50", "unit": "%"}, {"measurement": "total protein content versus solvent control", "setting": "[3]", "result": "no significant differences"}, {"measurement": "reduction in mitochondrial activity", "setting": "[4]; 10 μmol·L−1, 24 h", "result": 40, "unit": "%"}, {"measurement": "reduction in mitochondrial activity", "setting": "[4]; [6]", "result": "~50", "unit": "%"}, {"measurement": "# at risk", "setting": "[5]; Day 5", "result": 10}, {"measurement": "# deaths", "setting": "[5]; Day 5", "result": 1}, {"measurement": "psurv", "setting": "[5]; Day 5", "result": 0.9}, {"measurement": "pcum", "setting": "[5]; Day 5", "result": 0.9}, {"measurement": "# at risk", "setting": "[5]; Day 40", "result": 9}, {"measurement": "# deaths", "setting": "[5]; Day 40", "result": 1}, {"measurement": "psurv", "setting": "[5]; Day 40", "result": 0.89}, {"measurement": "pcum", "setting": "[5]; Day 40", "result": 0.8}, {"measurement": "# at risk", "setting": "[5]; Day 61", "result": 8}, {"measurement": "psurv", "setting": "[5]; Day 61", "result": 1}, {"measurement": "pcum", "setting": "[5]; Day 61", "result": 0.8}]}]}
